Laboratory results: US20250154195A1, “NOVEL BETULIN DERIVATIVES, AND THEIR MANUFACTURING METHOD AND USE AS SURFACTANT” (priority 2022, published 2025)

Assay: Critical micelle concentration (CMC) in water by the stalagmometric method (surface tension vs. concentration)
Format: physicochemical
Conditions: not given
Experimental: (§1) CMC of mono and di-hydrophilic moiety derivatized betulin derivatives were determined according to the stalagmometric method, which is one of the most common methods for measuring surface tension. Samples were prepared at different concentration of mono and di-hydrophilic moiety derivatized betulin derivatives. The surface tension of samples was calculated from the number of drops obtained by stalagmometer. CMC was calculated by plotting surface tensions vs. concentrations of sample.
CMCs of mono-glycosylated betulin, di-glycosylated betulin, mono-(poly) ethoxylated-carbonated betulin and di-(poly) ethoxylated betulin were determined in water, respectively. Surface tensions of samples obtained in above examples were determined at different concentrations according to the stalagmometric method.
as §1, with “mono-hydrophilic” for “mono and di-hydrophilic”
CMCs of two mono-hydrophilic functionalized betulin at C28-hydroxy and C3-hydroxy group were determined in water, respectively. Surface tensions of samples obtained in above examples were determined at different concentrations according to the stalagmometric method. And CMC was obtained as 0.6 mM (Betulin-carbonate-polyether (PEA) from Example 10), and 0.5 mM (Betulin-carbonate-polyether (PEG) from Example 11), respectively, by plotting surface tensions vs. concentrations of sample.

Compound | CMC
Betulin-carbonate-polyether (PEG) | 0.5 mM
C=C(C)[C@@H]1CC[C@]2(COC3OC(CO)C(O)C(O)C3O)CC[C@]3(C)C(CCC4[C@@]5(C)CC[C@H](OC6OC(CO)C(O)C(O)C6O)C(C)(C)C5CC[C@]43C)C12 (some centres unmarked) [di-glycosylated betulin, diglucose-betulin] | 1.0 mM
C=C(C)[C@@H]1CC[C@]2(COC3OC(CO)C(O)C(O)C3O)CC[C@]3(C)C(CCC4[C@@]5(C)CC[C@H](O)C(C)(C)C5CC[C@]43C)C12 (some centres unmarked) [mono-glycosylated betulin, glucose-betulin] | 0.8 mM
Betulin-carbonate-polyether (PEA) | 0.6 mM

Assay: not given
Conditions: non-ionic surfactants, literature values; cited from earlier work

Compound | CMC
Triton X-100 | 0.2 mM
sucrose monolaurate | 0.45 mM
fructose oleate | 0.4 mM
Brij 35 | 0.1 mM
